In the supplement of paper PMC7661543:
± gives the standard deviation of the averaged measurements.

What was measured:
Assay in all cases: relative cell number vs DMSO control (72 h) (% of DMSO); higher = less growth inhibition (more cells)
Conditions in all cases: sgRNA knockout: sgNT
[1] = test system: BT-20
Description: (§1)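 QMAP-Seq: a pool of 5 breast cancer cell lines (ZR-75-1, SKBR3, HCC-38, MDA-MB-231, BT-20), each carrying 12 doxycycline-inducible Cas9 sgRNA perturbations (11 knockouts plus non-targeting sgNT), was treated with compounds for 72 h at four 10-fold doses (10 nM-10 uM or 1 nM-1 uM range). Barcodes were amplified and sequenced, and cell number was interpolated from 293T spike-in standard curves. The result is expressed as % of the median of DMSO wells. Two biological replicates.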

[2] = test system: HCC-38
Description: as §1

[3] = test system: MDA-MB-231
Description: as §1

[4] = test system: SKBR3
Description: as §1

[5] = test system: ZR-75-1
Description: as §1

Compound	relative cell number ([1]; 10 nM)	relative cell number ([1]; 100 nM)	relative cell number ([1]; 1000 nM)	relative cell number ([1]; 10000 nM)	relative cell number ([2]; 10 nM)	relative cell number ([2]; 100 nM)	relative cell number ([2]; 1000 nM)	relative cell number ([2]; 10000 nM)	relative cell number ([3]; 10 nM)	relative cell number ([3]; 100 nM)	relative cell number ([3]; 1000 nM)	relative cell number ([3]; 10000 nM)	relative cell number ([4]; 10 nM)	relative cell number ([4]; 100 nM)	relative cell number ([4]; 1000 nM)	relative cell number ([4]; 10000 nM)	relative cell number ([5]; 10 nM)	relative cell number ([5]; 100 nM)	relative cell number ([5]; 1000 nM)	relative cell number ([5]; 10000 nM)	relative cell number ([1]; 1 nM)	relative cell number ([2]; 1 nM)	relative cell number ([3]; 1 nM)	relative cell number ([4]; 1 nM)	relative cell number ([5]; 1 nM)
CCOC(=O)CCNc1cc(N2CCc3ccccc3CC2)nc(-c2ccccn2)n1 [GSKJ4]	86.2 ± 8	105 ± 1.5	122 ± 12	52.7 ± 5.3	103 ± 7.2	98.1 ± 1.7	96.1 ± 22	60.8 ± 9.7	98.3 ± 30	123 ± 22	96.8 ± 44	34 ± 7.1	94.1 ± 37	104 ± 3.1	101 ± 9.6	88.8 ± 34	125 ± 56	113 ± 3.1	110 ± 7.2	33.4 ± 1.8	–	–	–	–	–
CC(C)c1cc(-c2n[nH]c(=O)n2-c2ccc3c(ccn3C)c2)c(O)cc1O [Ganetespib]	89.9 ± 2.6	44.8 ± 0.61	48.5 ± 11	–	94.7 ± 2.2	26.6 ± 1.2	18.5 ± 2.5	–	88.7 ± 21	13.7 ± 1.3	11.4 ± 7.9	–	75.4 ± 13	24.1 ± 5.2	30.5 ± 9.4	–	83.6 ± 40	18 ± 1.4	27.2 ± 3.3	–	96.6 ± 15	91 ± 2.5	88.2 ± 21	73.1 ± 28	96.883 ± 0.01
COc1cc2ncnc(Nc3ccc(F)c(Cl)c3)c2cc1OCCCN1CCOCC1 [Gefitinib]	95.4 ± 5.2	80.8 ± 9.2	86.3 ± 16	62.8 ± 13	84.4 ± 11	105.03 ± 0.0072	105 ± 18	92.41 ± 0.25	83.3 ± 31	76.2 ± 23	81.2 ± 19	108 ± 12	78.7 ± 18	95.3 ± 31	48.5 ± 17	36.6 ± 7.8	101 ± 13	116 ± 49	51.61 ± 0.097	44.4 ± 13	–	–	–	–	–
Nc1ccn([C@@H]2O[C@H](CO)[C@@H](O)C2(F)F)c(=O)n1 [Gemcitabine]	68 ± 3.1	34 ± 5.5	28.3 ± 5	23.9 ± 15	20.2 ± 3.4	10.5 ± 0.58	12.9 ± 3.4	11.1 ± 3.8	18.5 ± 3.2	20.3 ± 7.1	15.6 ± 1.6	14 ± 3.5	26.2 ± 2.4	7.58 ± 1.7	11.1 ± 5.8	14.1 ± 6.9	36.6 ± 15	26.4 ± 0.51	33.9 ± 6	30.5 ± 2.7	–	–	–	–	–
Cc1cc2c(C(C)C)c(O)c(O)c(C=O)c2c(O)c1-c1c(C)cc2c(C(C)C)c(O)c(O)c(C=O)c2c1O [Gossypol]	96.2 ± 1.7	80.1 ± 8.4	113 ± 39	44.9 ± 2	96.4 ± 16	91.6 ± 12	107.2 ± 0.47	27 ± 1.4	125 ± 38	87.2 ± 6.4	103 ± 33	22.7 ± 7.3	101.3 ± 0.15	94.3 ± 8.1	103 ± 7.4	24.6 ± 2.8	129 ± 19	96 ± 13	106 ± 54	26.9 ± 14	–	–	–	–	–
COc1cc2c(cc1-c1c(C)noc1C)ncc1[nH]c(=O)n([C@H](C)c3ccccn3)c12 [IBET151]	82.5 ± 2.4	90.5 ± 39	72.5 ± 0.91	49.4 ± 3.8	85.1 ± 6.5	82.8 ± 13	60.2 ± 2.5	53.6 ± 3.3	88.1 ± 9	72.1 ± 3.6	42.4 ± 2	19 ± 15	64.9 ± 9	88.5 ± 6.6	47.8 ± 1.4	31.9 ± 9.4	65.6 ± 36	104 ± 28	49 ± 4.5	37.5 ± 0.4	–	–	–	–	–
O=P1(NCCCl)OCCCN1CCCl (stereo not given) [Ifosfamide]	71.6 ± 2.8	89.6 ± 16	109.5 ± 0.23	84.7 ± 16	107 ± 4.6	96 ± 20	105 ± 14	100 ± 11	75.5 ± 8	95.4 ± 25	103 ± 13	95.5 ± 5.4	74.2 ± 5.4	74.6 ± 24	82.8 ± 25	71.9 ± 38	69.6 ± 31	107 ± 35	79.1 ± 40	85.6 ± 8.3	–	–	–	–	–
O=C(/C=C/c1ccc(O)cc1)c1ccc(O)cc1O [Isoliquiritigenin]	113 ± 12	95.4 ± 25	80.4 ± 11	94.9 ± 1.9	96.1 ± 6.6	92.5 ± 6.5	96.7 ± 11	86.5 ± 9.8	87.3 ± 22	75.5 ± 23	87 ± 3	88 ± 26	83.1 ± 20	109 ± 30	82.7 ± 16	68.9 ± 8.6	120 ± 22	88 ± 10	99.8 ± 30	83.9 ± 5.5	–	–	–	–	–
CCn1c(=O)c2c(nc(/C=C/c3ccc(OC)c(OC)c3)n2C)n(CC)c1=O [Istradefylline]	109 ± 12	104 ± 5.7	94.8 ± 12	106 ± 8.2	88.28 ± 0.69	99.3 ± 24	93.3 ± 8.3	106 ± 2.4	86 ± 1.8	146 ± 30	93.8 ± 5.8	105 ± 43	80.5 ± 18	84.2 ± 5.3	99.5 ± 23	112 ± 15	128 ± 37	114 ± 3.4	110 ± 7.6	94.9 ± 19	–	–	–	–	–
O=C(c1ccc(/C=C/c2n[nH]c3ccccc23)cc1)N1CCNCC1 [KW2449]	109 ± 15	89.6 ± 4.7	113 ± 20	79.4 ± 13	88 ± 8	87.64 ± 0.15	81 ± 5.1	42.2 ± 5.9	103 ± 14	116 ± 35	78.79 ± 0.17	35.4 ± 8.4	69 ± 16	72.7 ± 10	104 ± 5.3	73.1 ± 49	75.6 ± 8.1	104 ± 3.9	48.8 ± 12	56 ± 10	–	–	–	–	–
O=C(Cc1ccc(-c2ccc(OCCN3CCOCC3)cc2)cn1)NCc1ccccc1 [KX2391]	127 ± 31	36.5 ± 7.8	33.3 ± 7	31.8 ± 10	139 ± 16	24.4 ± 0.93	24.1 ± 1.9	30.8 ± 3.4	108 ± 56	30.3 ± 9.2	18 ± 2.3	19.78 ± 0.15	91.5 ± 17	17.8 ± 2	8.71 ± 3	10.3 ± 2.5	132 ± 43	24.8 ± 2.5	24.6 ± 4.9	17.8 ± 8.4	–	–	–	–	–
COc1cc(C(=O)N2CCC(N3CCN(C)CC3)CC2)ccc1Nc1ncc2c(n1)N(C)c1ccccc1C(=O)N2C [LRRK2IN1]	116 ± 14	93.7 ± 7.9	93.8 ± 15	38.2 ± 4	100 ± 8.9	84.8 ± 7	67.3 ± 4	42.4 ± 1.1	123 ± 3.5	96.6 ± 1.3	44.2 ± 7.9	16 ± 2.8	111 ± 44	70.9 ± 6	71 ± 31	32.9 ± 13	106 ± 7	152 ± 59	69.4 ± 3	19.1 ± 5.2	–	–	–	–	–
